Data published in patent publication US20260315376A1, “NOVEL OPHTHALMIC COMPOSITION” (Cipla Limited, priority 2022, published 2026).
In brackets after ≈: the same amount, converted by molar mass.

Assays:
Corynebacterium = assay: Broth microdilution antibacterial susceptibility (MIC), keratitis/conjunctivitis isolates; type: cell-based; conditions: at ≤2 mcg/mL
Procedure: (§1) Example 3: In Vitro “Proof of Concept” Study of Effects of Plazomicin on Isolates from Bacterial Keratitis and/or Conjunctivitis
(§2) Isolates from patients diagnosed clinically with microbial keratitis were tested for antibacterial susceptibility against plazomicin agents using reference broth microdilution methods.
(§3) 21 grams of Muller Hinton broth powder was suspended in 1000 ml of distilled water.
(§4) Pure cultures of bacterial isolates were prepared in Blood Agar/Mueller Hinton agar from cryovials.
(§5) A standardized inoculum of 0.5 McFarland was prepared using direct colony suspension method.
(§6) 3-5 well isolated colonies were taken from 18-24 hour culture plate and suspended into 2 ml of sterile saline/Muller Hinton broth.
(§7) A homogenous suspension was made, and the turbidity was adjusted to 0.5McFarland turbidity standard (approximately 1*10^6-8 CFU/ml) using the Densitometer.
(§8) A 0.1 ml of standardized bacterial inoculum was added to 9.9 ml of sterile saline solution. (i.e., a 1:100 dilution).
(§9) A 96 well round bottomed plate was used for the Microbroth dilution assay.
(§10) A 100 μl of Muller Hinton broth containing drug concentrations from 0.125 mcg/ml to 64 mcg/ml (0.125 mcg/ml, 0.25 mcg/ml, 0.5 mcg/ml, 1 mcg/ml, 2 mcg/ml, 4 mcg/ml, 8 mcg/ml, 16 mcg/ml, 32 mcg/ml, and 64 mcg/ml) were added to the 96 well.
(§11) To this a 100 μl of the diluted bacterial inoculum (1:100) was added to each well with varying concentration of drugs. Each well contained 5*10^5 CFU/ml bacteria.
(§12) Growth control (Respective organism+Muller Hinton broth) and sterility control (Sterile Muller Hinton broth) were added to the 96 well plate.
(§13) The plate was incubated for 18-24 hours to read the Minimum Inhibitory Concentration (MIC).
(§14) Gram positive isolates evaluated: • 1. Methicillin susceptible Staphylococcus aureus (MSSA) • 2. Methicillin resistant Staphylococcus aureus (MRSA) • 3. Staphylococcus epidermidis • 4. Staphylococcus hominis • 5. Staphylococcus haemolyticus • 6. Streptococcus pneumoniae • 7. Corynebacterium

[1] = test system: Methicillin resistant Staphylococcus aureus (MRSA); assay: as above; type: cell-based
Procedure: as §1, §2, §3, §4, §5, §6, §7, §8, §9, §10, §11, §12, §13, §14

[2] = test system: Methicillin susceptible Staphylococcus aureus (MSSA); assay: as above; type: cell-based
Procedure: as §1, §2, §3, §4, §5, §6, §7, §8, §9, §10, §11, §12, §13, §14

Staphylococcus spp. = assay: as above; type: cell-based
Procedure: as §1, §2, §3, §4, §5, §6, §7, §8, §9, §10, §11, §12, §13, §14

S. epidermidis = assay: as above; type: cell-based, Staphylococcus epidermidis; conditions: at ≤2 mcg/mL
Procedure: as §1, §2, §3, §4, §5, §6, §7, §8
(§15) A 96 well round bottomed plate was used for the Microbroth dilution assay. […]
as §13
(§16) Gram positive isolates evaluated: • 1. […]

S. hominis = assay: as above; type: cell-based, Staphylococcus hominis; conditions: at ≤2 mcg/mL
Procedure: as §1, §2, §3, §4, §5, §6, §7, §8, §15, §13, §16

S. haemolyticus = assay: as above; type: cell-based, Staphylococcus haemolyticus; conditions: at ≤2 mcg/mL
Procedure: as §1, §2, §3, §4, §5, §6, §7, §8, §15, §13, §16

Enterobacter spp. = assay: as above; type: cell-based; conditions: at ≤2 mcg/mL
Procedure: as §1, §2, §3, §4, §5, §6, §7, §8, §9, §10, §11, §12, §13
(§17) • 1. Pseudomonas • 2. Klebsiella pneumoniae • 3. Klebsiella pneumoniae (ESBLs) • 4. Moraxella lacunata • 5. Haemophilus influenzae • 6. Proteus • 7. Serratia • 8. Enterobacter e.

[3] = test system: Enterobacterales isolates; assay: as above; type: cell-based
Procedure: as §1, §2, §3, §4, §5, §6, §7, §8, §9, §10, §11, §12, §13, §17

Moraxella lacunata = assay: as above; type: cell-based; conditions: at ≤2 mcg/mL
Procedure: as §1, §2, §3, §4, §5, §6, §7, §8, §9, §10, §11, §12, §13, §17

Pseudomonas spp. = assay: as above; type: cell-based
Procedure: as §1, §2, §3, §4, §5, §6, §7, §8, §9, §10, §11, §12, §13, §17

conjunctival isolates = assay: Broth microdilution antibacterial susceptibility (MIC), conjunctival isolates; type: cell-based; conditions: ≤4 mcg/mL
Procedure: as §1, §2, §3, §4, §5, §6, §7, §8, §15, §13, §16

[4] = test system: Isolates from Bacterial Keratitis and/or Conjunctivitis; assay: In vitro proof of concept study, overall antibacterial activity; type: cell-based
Procedure: as §1, §2, §3, §4, §5, §6, §7, §8, §15, §13, §16

MRSA = conditions: vs amikacin; cited from earlier work
MSSA = conditions: vs amikacin; cited from earlier work
[5] = test system: species of Staphylococcus; conditions: cited from earlier work
[6] = test system: Gram-negative enteric bacteria; conditions: cited from earlier work
[7] = Staphylococcus aureus, 18-24 hours incubation

CN[C@@H]1[C@@H](O)[C@@H](O[C@@H]2[C@@H](O)[C@H](O[C@H]3OC(CNCCO)=CC[C@H]3N)[C@@H](N)C[C@H]2NC(=O)[C@@H](O)CCN)OC[C@]1(C)O [Plazomicin]
activity (% of isolates) (Corynebacterium): 100%
susceptible isolates [1]: 60%
MIC50 [1, 7]: 2 µg/mL (≈ 3.37 µM)
MIC90 [1, 7]: 8 µg/mL (≈ 13.5 µM)
susceptible isolates [2]: 67.3%
MIC50 [2, 7]: 2 µg/mL (≈ 3.37 µM)
MIC90 [2, 7]: 8 µg/mL (≈ 13.5 µM)
isolates inhibited (Staphylococcus spp.; at ≤2 mcg/mL): 46%
isolates inhibited (Staphylococcus spp.; at ≤4 mcg/mL): 73.5%
isolates inhibited (Staphylococcus spp.; at ≤8 mcg/mL): 90.10%
activity (% of isolates) (S. epidermidis): 100%
activity (% of isolates) (S. hominis): 100%
activity (% of isolates) (S. haemolyticus): 100%
activity (% of isolates) (Enterobacter spp.): 100%
isolates inhibited ([3]; at ≤2 mcg/mL): 61.5%
isolates inhibited ([3]; at ≤4 mcg/mL): 11.5%
activity (% of isolates) (Moraxella lacunata): 100%
showed activity for % of isolates (Pseudomonas spp.): 50%
MIC50 (Pseudomonas spp.; 18-24 hours incubation): 4 µg/mL (≈ 6.75 µM)
MIC90 (Pseudomonas spp.; 18-24 hours incubation): 16 µg/mL (≈ 27 µM)
susceptibility of conjunctival isolates (conjunctival isolates): 100%
antibacterial activity (conclusion) [4]: very good antibacterial activity
activity compared with amikacin (MRSA): greater activity than amikacin
activity compared with amikacin (MSSA): greater activity than amikacin
activity [5]: potent activity
in vitro activity compared with amikacin, gentamicin and tobramycin [6]: more potent in vitro activity than amikacin, gentamicin and tobramycin
